The text below walks through data of article PMC9504419, “Multipotent Cholinesterase Inhibitors for the Treatment of Alzheimer’s Disease: Synthesis, Biological Analysis and Molecular Docking Study of Benzimidazole-Based Thiazole Derivatives” (Molecules, 2022).

Test [1] concerns the target BuChE (Homo sapiens, UniProt P06276). Kind of test: biochemical. Type of test: biochemical. The procedure: (§1) The inhibition of AChE and BChE was determined using a method described earlier. Briefly, the stock solutions (1 mg/mL) of test analogues were prepared using DMSO. The working solutions (1–100 μg/mL) were prepared using serial dilutions (a serial dilution means a series of diluted solutions, e.g., 0.1 mg/mL, 0.2 mg/mL and so on; the solutions contained 5% DMSO and 95% water). The various concentrations of test compounds (10 μL) were pre-incubated with sodium phosphate buffer (0.1 M; pH 8.0; 150 μL) and AChE (0.1 U/mL; 20 μL) for 15 min at 25 °C. The reaction was initiated via the addition of DTNB (1 mM; 10 μL) and […] (1 mM; 10 μL). The mixture of reaction was mixed using a cyclomixer and incubated for 10 min at 25 °C. The absorbance was measured using a microplate reader at a 410 nm wavelength against the blank reading containing 10μL DMSO instead of the test compound (the solution contained 5% DMSO and 95% water).
(§2) % Inhibition = (Absorbance of control—Absorbance of compound)/Absorbance of control × 100

Test [2] has as its target AChE (Homo sapiens, UniProt P22303). Kind of test: biochemical. Conditions: for Selectivity Index: AChE and BuChE IC50 values. The test is classed as biochemical. As for the experimental part:
as §1, §2

Read-outs that look alike come from different tables or passages of the source.

Sequence of BuChE (P06276 29-602): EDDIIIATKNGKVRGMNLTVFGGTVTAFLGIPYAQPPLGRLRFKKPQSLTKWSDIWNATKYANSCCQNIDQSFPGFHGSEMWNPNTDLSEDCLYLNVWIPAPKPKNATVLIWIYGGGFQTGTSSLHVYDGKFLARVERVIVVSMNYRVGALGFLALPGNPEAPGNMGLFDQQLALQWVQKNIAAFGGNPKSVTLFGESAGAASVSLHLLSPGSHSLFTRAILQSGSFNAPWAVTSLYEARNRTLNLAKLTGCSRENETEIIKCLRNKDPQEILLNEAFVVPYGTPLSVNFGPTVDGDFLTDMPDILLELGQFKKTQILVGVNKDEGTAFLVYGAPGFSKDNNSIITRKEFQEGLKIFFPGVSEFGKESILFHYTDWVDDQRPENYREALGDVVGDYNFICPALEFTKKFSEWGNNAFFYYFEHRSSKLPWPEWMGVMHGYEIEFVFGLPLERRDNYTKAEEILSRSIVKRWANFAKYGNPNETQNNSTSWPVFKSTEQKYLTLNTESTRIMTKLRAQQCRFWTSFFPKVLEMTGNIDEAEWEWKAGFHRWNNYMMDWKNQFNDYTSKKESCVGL
Sequence of AChE (P22303 32-614): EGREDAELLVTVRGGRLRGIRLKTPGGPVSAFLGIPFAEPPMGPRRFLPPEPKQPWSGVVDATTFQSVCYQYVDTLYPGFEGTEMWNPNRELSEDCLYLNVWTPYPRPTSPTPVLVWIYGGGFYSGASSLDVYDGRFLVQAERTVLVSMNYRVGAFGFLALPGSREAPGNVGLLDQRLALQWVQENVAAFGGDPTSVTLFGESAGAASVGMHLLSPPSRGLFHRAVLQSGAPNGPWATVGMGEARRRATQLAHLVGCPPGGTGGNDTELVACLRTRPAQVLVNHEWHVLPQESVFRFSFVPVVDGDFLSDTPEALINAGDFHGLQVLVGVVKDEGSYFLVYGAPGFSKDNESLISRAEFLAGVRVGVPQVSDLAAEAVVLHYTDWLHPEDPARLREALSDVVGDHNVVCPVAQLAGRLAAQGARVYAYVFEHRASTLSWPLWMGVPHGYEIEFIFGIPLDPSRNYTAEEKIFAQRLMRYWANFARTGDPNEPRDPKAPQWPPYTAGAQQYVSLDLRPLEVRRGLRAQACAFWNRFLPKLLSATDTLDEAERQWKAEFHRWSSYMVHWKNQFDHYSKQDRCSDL

For the compound `O=[N+]([O-])c1cc(O)c(Cl)cc1-c1csc(N/N=C(/CSc2nc3ccccc3[nH]2)c2ccccc2O)n1` [compound 2, (E)-4-(2-(2-(2-((1H-benzo[d]imidazol-2-yl)thio)-1-(2-hydroxyphenyl)ethylidene)hydrazinyl)thiazol-4-yl)-2-chloro-5-nitrophenol], the IC50 in test [1] (read-out: IC50BuChE) was found to be 3200 ± 100 nM; in test [2] (read-out: IC50AChE) it was 2300 ± 100 nM.

For `Oc1ccc(-c2csc(N/N=C(/CSc3nc4ccccc4[nH]3)c3ccccc3)n2)cc1` [compound 3, (E)-4-(2-(2-(2-((1H-benzo[d]imidazol-2-yl)thio)-1-phenylethylidene) hydrazinyl)thiazol-4-yl)phenol], the IC50 in test [1] (read-out: IC50BuChE) stood at 1800 ± 100 nM; in test [2] (read-out: IC50AChE), 800 ± 100 nM. For the same compound, in test [2], the “Selectivity Index” value is on record as 2.25.

Regarding `COc1cccc(-c2csc(N/N=C(/CSc3nc4ccccc4[nH]3)c3ccccc3)n2)c1` [compound 4, (E)-2-(2-(2-((1H-benzo[d]imidazol-2-yl)thio)-1-phenylethylidene)hydrazinyl)-4-(3-methoxyphenyl)thiazole], the results for the IC50 in test [1] (read-out: IC50BuChE) and in test [2] (read-out: IC50AChE) were 5300 ± 100 nM and 3500 ± 100 nM, respectively. Also, in test [2], the “Selectivity Index” value stood at 1.51.

Turning to `Cc1ccc(-c2csc(N/N=C(/CSc3nc4ccccc4[nH]3)c3ccccc3)n2)cc1` [compound 5, (E)-2-(2-(2-((1H-benzo[d]imidazol-2-yl)thio)-1-phenylethylidene)hydrazinyl)-4-(p-tolyl)thiazole], the IC50 stood at 10700 ± 200 nM in test [1] (read-out: IC50BuChE) and 8600 ± 200 nM in test [2] (read-out: IC50AChE). The “Selectivity Index” value in test [2] amounted to 1.24.

As to `Clc1ccc(-c2csc(N/N=C(/CSc3nc4ccccc4[nH]3)c3ccccc3)n2)cc1Cl` [compound 6, (E)-2-(2-(2-((1H-benzo[d]imidazol-2-yl)thio)-1-phenylethylidene)hydrazinyl)-4-(3,4-dichlorophenyl)thiazole], the values for the IC50 in test [1] (read-out: IC50BuChE) and in test [2] (read-out: IC50AChE) were 1400 ± 50 nM and 700 ± 50 nM, respectively. The “Selectivity Index” value in test [2] came to 2.0.

For the compound `Cc1ccc(/C(CSc2nc3ccccc3[nH]2)=N\Nc2nc(-c3ccccc3[N+](=O)[O-])cs2)cc1` [compound 7, (E)-2-(2-(2-((1H-benzo[d]imidazol-2-yl)thio)-1-(p-tolyl)ethylidene)hydrazinyl)-4-(2-nitrophenyl)thiazole], the results for the IC50 in test [1] (read-out: IC50BuChE) and in test [2] (read-out: IC50AChE) were 3500 ± 100 nM and 2900 ± 100 nM, respectively. For the same compound, the “Selectivity Index” value in test [2] turned out to be 1.21.

In the case of `Cc1ccc(/C(CSc2nc3ccccc3[nH]2)=N\Nc2nc(-c3cccc([N+](=O)[O-])c3)cs2)cc1` [compound 8, (E)-2-(2-(2-((1H-benzo[d]imidazol-2-yl)thio)-1-(p-tolyl)ethylidene)hydrazinyl)-4-(3-nitrophenyl)thiazole], the IC50 in test [1] (read-out: IC50BuChE) was determined as 7900 ± 100 nM; in test [2] (read-out: IC50AChE) it was 6300 ± 100 nM. The “Selectivity Index” value in test [2] is listed as 1.25.

In test [1], `O=[N+]([O-])c1cc(O)c(Cl)cc1-c1csc(N/N=C(/CSc2nc3ccccc3[nH]2)c2cccc(O)c2[N+](=O)[O-])n1` [compound 9, (E)-4-(2-(2-(2-((1H-benzo[d]imidazol-2-yl)thio)-1-(3-hydroxy-2-nitrophenyl)ethylidene)hydrazinyl)thiazol-4-yl)-2-chloro-5-nitrophenol] came in with an IC50 of 3200 ± 100 nM. Further, in test [2], the IC50 worked out at 1300 ± 100 nM and the “Selectivity Index” value is 2.46.

`CN(C)c1cc([N+](=O)[O-])c(-c2csc(N/N=C(/CSc3nc4ccccc4[nH]3)c3ccc(-c4ccccc4)cc3)n2)cc1O` [compound 10, (E)-5-(2-(2-(2-((1H-benzo[d]imidazol-2-yl)thio)-1-([1,1’-biphenyl]-4-yl)ethylidene)hydrazinyl)thiazol-4-yl)-2-(dimethylamino)-4-nitrophenol]: the IC50BuChE entry in test [1] is listed as “inactivity”. In test [2], the IC50AChE result is given as “inactivity”.

Regarding `Cc1ccc(/C(CSc2nc3ccccc3[nH]2)=N\Nc2nc(-c3ccc(Cl)c(Cl)c3)cs2)cc1` [compound 11, (E)-2-(2-(2-((1H-benzo[d]imidazol-2-yl)thio)-1-(p-tolyl)ethylidene)hydrazinyl)-4-(3,4-dichlorophenyl)thiazole], the figures for the IC50 in test [1] (read-out: IC50BuChE) and in test [2] (read-out: IC50AChE) were 1100 ± 100 nM and 400 ± 50 nM, respectively. Moreover, in test [2], the “Selectivity Index” value amounted to 2.75.

With `Cc1ccc(/C(CSc2nc3ccccc3[nH]2)=N\Nc2nc(-c3cc(Cl)c(O)cc3[N+](=O)[O-])cs2)c([N+](=O)[O-])c1` [compound 12, (E)-4-(2-(2-(2-((1H-benzo[d]imidazol-2-yl)thio)-1-(4-methyl-2-nitrophenyl)ethylidene)hydrazinyl)thiazol-4-yl)-2-chloro-5-nitrophenol], the IC50 in test [1] is 2100 ± 100 nM; in test [2], 1400 ± 100 nM. In test [2], the “Selectivity Index” value stood at 1.5.

With `Cc1ccc(-c2csc(N/N=C(/CSc3nc4ccccc4[nH]3)c3ccccc3[N+](=O)[O-])n2)cc1` [compound 13, (E)-2-(2-(2-((1H-benzo[d]imidazol-2-yl)thio)-1-(2-nitrophenyl)ethylidene) hydrazinyl)-4-(p-tolyl)thiazole], the figures for the IC50 in test [1] (read-out: IC50BuChE) and in test [2] (read-out: IC50AChE) were 5100 ± 100 nM and 3200 ± 100 nM, respectively. Also, the “Selectivity Index” value in test [2] amounted to 1.59.

As for `COc1cccc(-c2csc(N/N=C(/CSc3nc4ccccc4[nH]3)c3ccccc3[N+](=O)[O-])n2)c1` [compound 14, (E)-2-(2-(2-((1H-benzo[d]imidazol-2-yl)thio)-1-(2-nitrophenyl)ethylidene) hydrazinyl)-4-(3-methoxyphenyl)thiazole], the IC50 was found to be 4200 ± 100 nM in test [1] (read-out: IC50BuChE) and 3100 ± 100 nM in test [2] (read-out: IC50AChE). Further, in test [2], the “Selectivity Index” value turned out to be 1.35.

Take `O=[N+]([O-])c1ccccc1/C(CSc1nc2ccccc2[nH]1)=N\Nc1nc(-c2ccc(Cl)c(Cl)c2)cs1` [compound 15, (E)-2-(2-(2-((1H-benzo[d]imidazol-2-yl)thio)-1-(2-nitrophenyl)ethylidene) hydrazinyl)-4-(3,4-dichlorophenyl)thiazole]: the IC50 in test [1] (read-out: IC50BuChE) is 700 ± 50 nM; in test [2] (read-out: IC50AChE) it was 300 ± 50 nM. In addition, the “Selectivity Index” value in test [2] stood at 2.33.

Regarding `O=[N+]([O-])c1ccccc1/C(CSc1nc2ccccc2[nH]1)=N\Nc1nc(-c2ccc(O)cc2)cs1` [compound 16, (E)-4-(2-(2-(2-((1H-benzo[d]imidazol-2-yl)thio)-1-(2-nitrophenyl)ethylidene) hydrazinyl)thiazol-4-yl)phenol], the IC50 in test [1] (read-out: IC50BuChE) is 500 ± 50 nM; in test [2] (read-out: IC50AChE), 200 ± 50 nM. In test [2], the “Selectivity Index” value amounted to 2.5.

For `O=[N+]([O-])c1ccccc1-c1csc(N/N=C(/CSc2nc3ccccc3[nH]2)c2ccc(Cl)c(Cl)c2)n1` [compound 17, (E)-2-(2-(2-((1H-benzo[d]imidazol-2-yl)thio)-1-(3,4-dichlorophenyl)ethylidene) hydrazinyl)-4-(2-nitrophenyl)thiazole], the IC50 in test [1] (read-out: IC50BuChE) came to 1800 ± 100 nM; in test [2] (read-out: IC50AChE), 1100 ± 50 nM. In test [2], the “Selectivity Index” value amounted to 1.64.

Take `O=[N+]([O-])c1cccc(-c2csc(N/N=C(/CSc3nc4ccccc4[nH]3)c3ccc(Cl)c(Cl)c3)n2)c1` [compound 18, (E)-2-(2-(2-((1H-benzo[d]imidazol-2-yl)thio)-1-(3,4-dichlorophenyl)ethylidene) hydrazinyl)-4-(3-nitrophenyl)thiazole]: the IC50 was 1200 ± 100 nM in test [1] (read-out: IC50BuChE) and 700 ± 50 nM in test [2] (read-out: IC50AChE). Besides, the “Selectivity Index” value in test [2] came out at 1.71.
